Patent US11702632B2, “Ex vivo method of generating super regulatory T cells for the prevention of autoimmune disease” (University of Massachusetts, priority 2017, dated 2023)

Test system: humanized mouse model of GvHD
Test: Ex vivo-treated hPBMCs transferred into NSG mice, assessment of GvHD
Assay type: in vivo
Experimental: Animal protocols were approved by the Institutional Animal Care and use Committee of the University of Massachusetts Amherst. […] 10×10^6 treated hPBMCs in 150 μl of PBS were injected into mice via the tail vein.
Clinical score was generated by adding grades for five criteria.
IL-2 and IFNγ cytokine levels in plasma collected from NSG mice were determined by using human IFNγ and IL-2 Flex Sets (BD Biosciences). Data were acquired using a Fortessa 5 Laser Flow Cytometer (BD Biosciences) and analyzed using FCAP array software (Soft Flow Inc.).

## CC(=O)c1c(O)c(C)c(O)c(Cc2c(O)c3c(c(C(=O)/C=C/c4ccccc4)c2O)OC(C)(C)C=C3)c1O [rottlerin, Rottlerin]
hPBMCs pre-treated, no human cells detected on day +70
  mice without overt signs of disease: Two of three
pre-treated hPBMCs
  toxicity to hPBMCs: cytotoxic effects on hPBMCs
